Assay results reported in ChEMBL document CHEMBL5236598, “Lead Optimization and Avoidance of Metabolic-perturbing Motif Developing Novel Diarylpyrimidines as Potent HIV-1 NNRTIs” (J Med Chem, 2022).
≈ marks a conversion by molar mass, not a printed value.

Columns and labels:
[1] = test system: Human immunodeficiency virus 1; experiment: Antiviral activity against wild type HIV-1 IIIB infected in human MT4 cells assessed as protection against virus-induced cytopathic effect incubated for 5 days by MTT assay; format: functional, organism-based; details: Human immunodeficiency virus 1, IIIB, MT4, 120 h
[2] = test system: Human immunodeficiency virus 1; experiment: Antiviral activity against HIV-1 RES056 harboring RT K103N/Y181C double mutant infected in human MT4 cells assessed as protection against virus-induced cytopathic effect incubated for 5 days by MTT assay; format: functional, organism-based; details: Human immunodeficiency virus 1, RES056, MT4, 120 h
[3] = Cytotoxicity against human MT4 cells assessed as reduction in cell viability measured after 5 days by MTT assay; format: toxicity, cell-based; details: time 5 day
[4] = Selectivity index, ratio of CC50 for cytotoxicity against human MT4 cells to EC50 for antiviral activity against wild type HIV-1 IIIB infected in human MT4 cells; format: toxicity, cell-based; details: read-out: Ratio CC50/EC50
[5] = Selectivity index, ratio of CC50 for cytotoxicity against human MT4 cells to EC50 for antiviral activity against HIV-1 RES056 harboring RT K103N/Y181C double mutant infected in human MT4 cells; format: toxicity, cell-based; details: read-out: Ratio CC50/EC50
[6] = test system: Human immunodeficiency virus 1; experiment: Antiviral activity against HIV-1 harboring RT L100I mutant infected in human MT4 cells assessed as protection against virus-induced cytopathic effect incubated for 5 days by MTT assay; format: functional, organism-based; details: Human immunodeficiency virus 1, MT4, 120 h
[7] = test system: Human immunodeficiency virus 1; experiment: Antiviral activity against HIV-1 harboring RT K103N mutant infected in human MT4 cells assessed as protection against virus-induced cytopathic effect incubated for 5 days by MTT assay; format: functional, organism-based; details: Human immunodeficiency virus 1, MT4, 120 h
[8] = test system: Human immunodeficiency virus 1; experiment: Antiviral activity against HIV-1 harboring RT Y181C mutant infected in human MT4 cells assessed as protection against virus-induced cytopathic effect incubated for 5 days by MTT assay; format: functional, organism-based; details: Human immunodeficiency virus 1, MT4, 120 h
[9] = test system: Human immunodeficiency virus 1; experiment: Antiviral activity against HIV-1 harboring RT Y188L mutant infected in human MT4 cells assessed as protection against virus-induced cytopathic effect incubated for 5 days by MTT assay; format: functional, organism-based; details: Human immunodeficiency virus 1, MT4, 120 h
[10] = test system: Human immunodeficiency virus 1; experiment: Antiviral activity against HIV-1 harboring RT E138K mutant infected in human MT4 cells assessed as protection against virus-induced cytopathic effect incubated for 5 days by MTT assay; format: functional, organism-based; details: Human immunodeficiency virus 1, MT4, 120 h
[11] = test system: Human immunodeficiency virus 1; experiment: Antiviral activity against HIV-1 harboring RT F227L/V106A double mutant infected in human MT4 cells assessed as protection against virus-induced cytopathic effect incubated for 5 days by MTT assay; format: functional, organism-based; details: Human immunodeficiency virus 1, MT4, 120 h
[12] = test system: Human immunodeficiency virus 1; experiment: Potency index, ratio of Etravirine EC50 to test compound EC50 for antiviral activity against HIV-1 harboring RT K103N mutant infected in human MT4 cells assessed as protection against virus-induced cytopathic effect incubated for 5 days by MTT assay; format: functional; details: time 5 day
[13] = test system: Human immunodeficiency virus 1; experiment: Potency index, ratio of Etravirine EC50 to test compound EC50 for antiviral activity against HIV-1 harboring RT E138K mutant infected in human MT4 cells assessed as protection against virus-induced cytopathic effect incubated for 5 days by MTT assay; format: functional; details: time 5 day
[14] = target: T1, Human immunodeficiency virus type 1 reverse transcriptase (Human immunodeficiency virus 1, UniProt Q72547); experiment: Inhibition of wild type recombinant HIV-1 reverse transcriptase using biotin-labelled dNTPs as substrate assessed as inhibition of biotin-labelled UTP incorporation incubated for 1 hr by ELISA
[15] = target: T1, Human immunodeficiency virus type 1 reverse transcriptase; experiment: Binding affinity to HIV-1 reverse transcriptase assessed as dissociation constant by SPR analysis
[16] = Aqueous solubility of compound at pH 2 at 0.1 to 10 mg; format: physicochemical; details: aqueous medium, dose 0.1-10 mg
[17] = Aqueous solubility of compound at pH 7 at 0.1 to 10 mg; format: physicochemical; details: aqueous medium, dose 0.1-10 mg
[18] = Aqueous solubility of compound at pH 7.4 at 0.1 to 10 mg; format: physicochemical; details: aqueous medium, dose 0.1-10 mg

Compound	EC50 [1]	EC50 [2]	CC50 at 120 h [3]	selectivity ratio [4]	selectivity ratio [5]	EC50 [6]	EC50 [7]	EC50 [8]	EC50 [9]	EC50 [10]	EC50 [11]	Ratio EC50 [12]	Ratio EC50 [13]	IC50 [14]	Kd [15]	solubility [16]	solubility [17]	solubility [18]
Cc1cc(C#N)cc(C)c1Oc1nc(NC2CCN(c3c(F)cc(N)cc3F)CC2)nc2ccsc12	37.4 nM	> 5540 nM	5450 nM	146	< 1	–	–	–	–	–	–	–	–	–	–	–	–	–
Cc1cc(-c2ccc(C#N)cc2)cc(C)c1Oc1nc(Nc2ccc(C#N)c(F)c2)nc2sccc12	84.7 nM	493 nM	> 254000 nM	> 3010	> 517	–	–	–	–	–	–	–	–	–	–	–	–	–
Cc1cc(/C=C/C#N)cc(C)c1Oc1nc(NC2CCN(c3c(F)cc(NS(N)(=O)=O)cc3F)CC2)nc2ccsc12	37.1 nM	1940 nM	20000 nM	539	10	–	–	–	–	–	–	–	–	–	–	–	–	–
N#C/C=C/c1cc(F)c(Oc2nc(Nc3ccc(C#N)nc3)nc3ccsc23)c(F)c1	1.79 nM	2200 nM	47500 nM	26500	22	19.2 nM	2.55 nM	66.5 nM	> 47500 nM	7.46 nM	1450 nM	2	2	40 nM	–	–	–	–
Cc1cc(C#N)cc(C)c1Oc1nc(NC2CCN(c3ccc([N+](=O)[O-])cc3F)CC2)nc2sccc12	40 nM	> 37400 nM	37400 nM	935	< 1	–	–	–	–	–	–	–	–	–	–	–	–	–
Cc1cc(/C=C/C#N)cc(C)c1Oc1nc(NC2CCN(c3c(F)cc(N)cc3F)CC2)nc2ccsc12	32 nM	1580 nM	7880 nM	246	5	–	–	–	–	–	–	–	–	–	–	–	–	–
Cc1cc(/C=C/C#N)cc(C)c1Oc1nc(Nc2ccc(C#N)c(F)c2)nc2c1COC2	2.22 nM	53.3 nM	45600 nM	20600	857	3.04 nM	2.87 nM	10.2 nM	13.2 nM	9.77 nM	19.8 nM	–	–	50 nM	2500 nM	23.1 µg/mL (≈ 54 µM)	12.3 µg/mL (≈ 28.8 µM)	5.7 µg/mL (≈ 13.3 µM)
Cc1cc(-c2ccc(F)cc2)cc(C)c1Oc1nc(Nc2ccc(C#N)c(F)c2)nc2sccc12	583 nM	11100 nM	28900 nM	50	2.6	–	–	–	–	–	–	–	–	–	–	–	–	–
Cc1cc(/C=C/C#N)cc(C)c1Oc1nc(NC2CCN(c3ccc([N+](=O)[O-])cc3F)CC2)nc2ccsc12	140 nM	> 14200 nM	14200 nM	101	< 1	–	–	–	–	–	–	–	–	–	–	–	–	–
Cc1cc(C#N)cc(C)c1Oc1nc(NC2CCN(c3ccc(N)cc3F)CC2)nc2sccc12	20.7 nM	2600 nM	26900 nM	1300	10	–	–	–	–	–	–	–	–	–	–	–	–	–
Cc1cc(/C=C/C#N)cc(C)c1Oc1nc(NC2CCN(c3ccc(NS(N)(=O)=O)cc3F)CC2)nc2ccsc12	7.46 nM	832 nM	21700 nM	2910	26	–	–	–	–	–	–	–	–	–	–	–	–	–
N#C/C=C/c1cc(F)c(Oc2nc(Nc3ccc(C#N)c(F)c3)nc3sccc23)c(F)c1	52.4 nM	> 117000 nM	117000 nM	2240	< 1	–	–	–	–	–	–	–	–	–	–	–	–	–
Cc1cc(-c2ccc(C#N)cc2)cc(C)c1Oc1nc(Nc2ccc(C#N)nc2)nc2sccc12	10.9 nM	1520 nM	181000 nM	16600	119	–	–	–	–	–	–	–	–	–	–	–	–	–
N#C/C=C/c1cc(F)c(Oc2nc(Nc3ccc(C#N)c(F)c3)nc3ccsc23)c(F)c1	109 nM	6710 nM	96000 nM	878	14	–	–	–	–	–	–	–	–	–	–	–	–	–
Cc1cc(C#N)cc(C)c1Oc1nc(NC2CCN(c3ccc(NS(N)(=O)=O)cc3F)CC2)nc2sccc12	7.9 nM	3410 nM	21500 nM	2720	6	–	–	–	–	–	–	–	–	–	–	–	–	–
